According to ChEMBL document CHEMBL6074711, “Design, Synthesis, and Activity Evaluation of C-23-Modified 5-O-Mycaminosyltylonolide Derivatives” (ACS Med Chem Lett, 2024):
Values after ≈ are worked out from the molar mass of the structure shown.

How the values were obtained:
Format in all cases: functional
[1] = tested on: Escherichia coli; test: Antibacterial activity against Escherichia coli ATCC25922 incubated for 16 to 20 hrs by broth microdilution method; settings: time 16-20 hrs
[2] = tested on: Stenotrophomonas maltophilia; test: Antibacterial activity against Stenotrophomonas maltophilia ATCC17808 incubated for 16 to 20 hrs by broth microdilution method; settings: time 16-20 hrs
[3] = tested on: Enterococcus faecalis; test: Antibacterial activity against Enterococcus faecalis ATCC29212 incubated for 16 to 20 hrs by broth microdilution method; settings: time 16-20 hrs
[4] = tested on: Staphylococcus aureus; test: Antibacterial activity against Staphylococcus aureus ATCC25923 under 10^6 CFU/ml of bacterial inoculum culture by absorbance based assay
[5] = tested on: Staphylococcus aureus; test: Antibacterial activity against Staphylococcus aureus ATCC25923 under 10^7 CFU/ml of bacterial inoculum culture by absorbance based assay
[6] = tested on: Staphylococcus aureus; test: Antibacterial activity against Staphylococcus aureus ATCC25923 under 10^5 CFU/ml of bacterial inoculum culture by absorbance based assay
[7] = tested on: Staphylococcus aureus; test: Antibacterial activity against Staphylococcus aureus ATCC25923 under 10^4 CFU/ml of bacterial inoculum culture by absorbance based assay
[8] = tested on: Staphylococcus aureus; test: Antibacterial activity against Staphylococcus aureus ATCC25923 incubated for 16 to 20 hrs by broth microdilution method; settings: time 16-20 hrs
[9] = tested on: Escherichia coli; test: Antibacterial activity against drug-resistant Escherichia coli clinical isolate 1322 incubated for 16 to 20 hrs by broth microdilution method; settings: time 16-20 hrs
[10] = tested on: Staphylococcus aureus; test: Antibacterial activity against drug-resistant Staphylococcus aureus clinical isolate M20 incubated for 16 to 20 hrs by broth microdilution method; settings: time 16-20 hrs
[11] = tested on: Enterococcus faecalis; test: Bactericidal activity against Enterococcus faecalis ATCC29212 incubated for 20 to 24 hrs; settings: time 20-24 hrs
[12] = tested on: Escherichia coli; test: Antibacterial activity against drug-resistant Escherichia coli clinical isolate 1333 incubated for 16 to 20 hrs by broth microdilution method; settings: time 16-20 hrs
[13] = tested on: Escherichia coli; test: Antibacterial activity against Escherichia coli ATCC25922 incubated for 20 to 24 hrs; settings: time 20-24 hrs
[14] = tested on: Stenotrophomonas maltophilia; test: Ratio of MBC to MIC for Stenotrophomonas maltophilia ATCC17808 incubated for 20 to 24 hrs; settings: time 20-24 hrs
[15] = tested on: Stenotrophomonas maltophilia; test: Bactericidal activity against Stenotrophomonas maltophilia ATCC17808 incubated for 20 to 24 hrs; settings: time 20-24 hrs
[16] = tested on: Stenotrophomonas maltophilia; test: Antibacterial activity against Stenotrophomonas maltophilia ATCC17808 incubated for 20 to 24 hrs; settings: time 20-24 hrs
[17] = tested on: Enterococcus faecalis; test: Ratio of MBC to MIC for Enterococcus faecalis ATCC29212 incubated for 20 to 24 hrs; settings: time 20-24 hrs
[18] = tested on: Escherichia coli; test: Ratio of MBC to MIC for Escherichia coli ATCC25922 incubated for 20 to 24 hrs; settings: time 20-24 hrs
[19] = tested on: Enterococcus faecalis; test: Antibacterial activity against Enterococcus faecalis ATCC29212 incubated for 20 to 24 hrs; settings: time 20-24 hrs
[20] = tested on: Staphylococcus aureus; test: Antibacterial activity against Staphylococcus aureus ATCC25923 incubated for 20 to 24 hrs; settings: time 20-24 hrs
[21] = tested on: Staphylococcus aureus; test: Bactericidal activity against Staphylococcus aureus ATCC25923 incubated for 20 to 24 hrs; settings: time 20-24 hrs
[22] = tested on: Escherichia coli; test: Bactericidal activity against Escherichia coli ATCC25922 incubated for 20 to 24 hrs; settings: time 20-24 hrs

MIC [1] [µg/mL] | MIC [2] [µg/mL] | MIC [3] [µg/mL] | MIC [8] [µg/mL] | Structure (SMILES) | also measured
1 (≈ 1.12 µM) | 1 (≈ 1.12 µM) | 2 (≈ 2.23 µM) | 2 (≈ 2.23 µM) | CC[C@H]1OC(=O)C[C@@H](O)[C@H](C)[C@@H](O[C@@H]2O[C@H](C)[C@@H](O)[C@H](N(C)C)[C@H]2O)[C@@H](CCNCc2cn(-c3cnc4ccccc4c3)nn2)C[C@@H](C)C(=O)/C=C/C(C)=C/[C@@H]1CNCc1ccccc1 | 
> 32 | > 32 | 1 (≈ 1.15 µM) | 1 (≈ 1.15 µM) | CC[C@H]1OC(=O)C[C@@H](O)[C@H](C)[C@@H](O[C@@H]2O[C@H](C)[C@@H](O)[C@H](N(C)C)[C@H]2O)[C@@H](CCN2C[C@H](C)C[C@H](C)C2)C[C@@H](C)C(=O)/C=C/C(C)=C/[C@@H]1CO[C@@H]1O[C@H](C)[C@@H](O)[C@@H](OC)[C@H]1OC [TILMICOSIN] | 
8 (≈ 8.62 µM) | 4 (≈ 4.31 µM) | 8 (≈ 8.62 µM) | 2 (≈ 2.15 µM) | CC[C@H]1OC(=O)C[C@@H](O)[C@H](C)[C@@H](O[C@@H]2O[C@H](C)[C@@H](O)[C@H](N(C)C)[C@H]2O)[C@@H](CCN(C)Cc2cn(-c3cnc4ccccc4c3)nn2)C[C@@H](C)C(=O)/C=C/C(C)=C/[C@@H]1CNCc1ccc(F)cc1 | 
1 (≈ 1.06 µM) | 1 (≈ 1.06 µM) | 1 (≈ 1.06 µM) | 1 (≈ 1.06 µM) | CC[C@H]1OC(=O)C[C@@H](O)[C@H](C)[C@@H](O[C@@H]2O[C@H](C)[C@@H](O)[C@H](N(C)C)[C@H]2O)[C@@H](CCN(C)Cc2cn(-c3cnc4ccccc4c3)nn2)C[C@@H](C)C(=O)/C=C/C(C)=C/[C@@H]1CNCc1cc(F)cc(F)c1 | 

More lines, now with the values behind:

Structure (SMILES) | MIC [1] [µg/mL] | MIC [2] [µg/mL] | MIC [3] [µg/mL] | MIC [8] [µg/mL] | also measured
C[C@@H](O)[C@H]1C(=O)N2C(C(=O)O)=C(S[C@@H]3CN[C@H](C(=O)N(C)C)C3)[C@H](C)[C@H]12 [MEROPENEM] | 0.125 (≈ 0.326 µM) | 0.125 (≈ 0.326 µM) | 0.063 (≈ 0.164 µM) | 0.063 (≈ 0.164 µM) | MIC [4]: 1 µg/mL (≈ 2.61 µM); MIC [5]: 2 µg/mL (≈ 5.22 µM); MIC [6]: 0.5 µg/mL (≈ 1.3 µM); MIC [7]: 0.25 µg/mL (≈ 0.652 µM)
CC[C@H]1OC(=O)C[C@@H](O)[C@H](C)[C@@H](O[C@@H]2O[C@H](C)[C@@H](O)[C@H](N(C)C)[C@H]2O)[C@@H](CCN(C)Cc2cn(-c3cnc4ccccc4c3)nn2)C[C@@H](C)C(=O)/C=C/C(C)=C/[C@@H]1CNCc1ccccc1 | 2 (≈ 2.2 µM) | 2 (≈ 2.2 µM) | 4 (≈ 4.39 µM) | 1 (≈ 1.1 µM) | 
CC[C@H]1OC(=O)C[C@@H](O)[C@H](C)[C@@H](O[C@@H]2O[C@H](C)[C@@H](O)[C@H](N(C)C)[C@H]2O)[C@@H](CCN(C)Cc2cn(-c3cnc4ccccc4c3)nn2)C[C@@H](C)C(=O)/C=C/C(C)=C/[C@@H]1CNc1ccc(I)cc1 | 4 (≈ 3.91 µM) | 4 (≈ 3.91 µM) | 8 (≈ 7.83 µM) | 2 (≈ 1.96 µM) | 
CC[C@H]1OC(=O)C[C@@H](O)[C@H](C)[C@@H](O[C@@H]2O[C@H](C)[C@@H](O)[C@H](N(C)C)[C@H]2O)[C@@H](CCN(C)Cc2cn(-c3cnc4ccccc4c3)nn2)C[C@@H](C)C(=O)/C=C/C(C)=C/[C@@H]1CN(C)Cc1ccccc1 | 1 (≈ 1.08 µM) | 1 (≈ 1.08 µM) | 1 (≈ 1.08 µM) | 0.5 (≈ 0.541 µM) | MIC [9]: 1 µg/mL (≈ 1.08 µM); MIC [10]: 0.5 µg/mL (≈ 0.541 µM); MBC [11]: 8 µg/mL (≈ 8.66 µM); MIC [12]: 2 µg/mL (≈ 2.16 µM); MIC [13]: 1 µg/mL (≈ 1.08 µM); Ratio [14]: 4; MBC [15]: 16 µg/mL (≈ 17.3 µM); MIC [16]: 4 µg/mL (≈ 4.33 µM); Ratio [17]: 2; Ratio [18]: 4; MIC [19]: 4 µg/mL (≈ 4.33 µM); MIC [20]: 16 µg/mL (≈ 17.3 µM); MBC [21]: > 32 µg/mL; MBC [22]: 4 µg/mL (≈ 4.33 µM)
CC[C@H]1OC(=O)C[C@@H](O)[C@H](C)[C@@H](O[C@@H]2O[C@H](C)[C@@H](O)[C@H](N(C)C)[C@H]2O)[C@@H](CCN(C)Cc2cn(-c3cnc4ccccc4c3)nn2)C[C@@H](C)C(=O)/C=C/C(C)=C/[C@@H]1CNCc1ccc(C)cc1 | 2 (≈ 2.16 µM) | 2 (≈ 2.16 µM) | 4 (≈ 4.33 µM) | 1 (≈ 1.08 µM) | 
CC[C@H]1OC(=O)C[C@@H](O)[C@H](C)[C@@H](O[C@@H]2O[C@H](C)[C@@H](O)[C@H](N(C)C)[C@H]2O)[C@@H](CCN(C)Cc2cn(-c3cnc4ccccc4c3)nn2)C[C@@H](C)C(=O)/C=C/C(C)=C/[C@@H]1CNc1ccc2ccccc2c1 | 8 (≈ 8.45 µM) | 4 (≈ 4.23 µM) | 8 (≈ 8.45 µM) | 4 (≈ 4.23 µM) | 
